According to US9079866B2, “Flap modulators” (JANSSEN PHARMACEUTICA NV, priority 2013, dated 2015):
Where two headings read alike, the source gives them in different places.

Legend:
[1] = target: human FLAP (Homo sapiens (Human), UniProt P20292); assay: FLAP binding assay (HTRF format)
Summary of the method: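 Read-out is the HTRF ratio. Each reported figure averages two assay plates on which samples were tested in duplicate.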

[2] = system: leukotriene pathway in human whole blood (LTB4 levels); assay: Human whole blood assay (A23187-stimulated LTB4); assay type: cell-based; conditions: read-out: LTB4 IC50 1:1
Summary of the method: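 Heparinised human whole blood diluted 1:1 in RPMI, pre-incubated 15 min at 37° Celsius with compound, then stimulated with A23187 (7 μg/mL) for 30 min at 37° Celsius. Plasma LTB4 measured by immunoassay kit; IC50 from 4-parameter fit; single replicate per plate, at least one healthy donor.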

[3] = Homo sapiens, human whole blood diluted 1:1, A23187-stimulated
[4] = human FLAP wild type, HTRF format, average of two plates, duplicates
[5] = Homo sapiens, human whole blood diluted 1:1 in RPMI, A23187-stimulated LTB4
[6] = human whole blood diluted 1:1 in RPMI, A23187-stimulated LTB4

Chain of human FLAP (P20292 whole entry): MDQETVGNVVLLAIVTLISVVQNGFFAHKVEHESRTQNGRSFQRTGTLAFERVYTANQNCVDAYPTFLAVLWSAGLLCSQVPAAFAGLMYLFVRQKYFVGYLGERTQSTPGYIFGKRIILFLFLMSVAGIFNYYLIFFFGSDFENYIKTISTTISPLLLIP

Ki [1, 4] | IC50 [2, 5] | SMILES | also measured
– | – | Nc1ncc(-c2ccc(-c3ccccc3S(=O)(=O)N3CCCC(CCO)C3)cc2F)cc1F (racemic) [Example 671, 2-(1-((4′-(6-Amino-5-fluoropyridin-3-yl)-3′-fluoro-[1,1′-biphenyl]-2-yl)sulfonyl)piperidin-3-yl)ethanol] | Ki ([1]; wild type FLAP, HTRF format): 15.7 nM; IC50 [2, 3]: 164 nM
– | – | Nc1ncc(-c2ccc(-c3ccccc3S(=O)(=O)N3CCCC(CO)C3)cc2F)cc1F (racemic) [Example 672, (1-((4′-(6-Amino-5-fluoropyridin-3-yl)-3′-fluoro-[1,1′-biphenyl]-2-yl)sulfonyl)piperidin-3-yl)methanol] | Ki ([1]; wild type FLAP, HTRF format): 13.7 nM; IC50 [2, 3]: 196 nM
– | – | Nc1cnc(-c2ccc(-c3ccccc3C(=O)N3CCOC(C(F)(F)F)C3)cc2F)cn1 (racemic) [Example 754, racemic 5-(3-Fluoro-2′-{[2-(trifluoromethyl)morpholin-4-yl]carbonyl}biphenyl-4-yl)pyrazin-2-amine] | Ki ([1]; wild type FLAP, HTRF format): 69.9 nM; IC50 [2, 3]: 377 nM
– | – | Nc1cnc(-c2ccc(-c3ccccc3C(=O)N3CCOC(CO)C3)cc2F)cn1 (racemic) [Example 798, [2-[4-(5-Aminopyrazin-2-yl)-3-fluoro-phenyl]phenyl]-[2-(hydroxymethyl)morpholin-4-yl]methanone] | Ki ([1]; wild type FLAP, HTRF format): 257 nM; IC50 [2, 3]: 220 nM
19 nM | > 1000 nM | Nc1cnc(-c2ccc(-c3ccccc3S(=O)(=O)N3C[C@H](O)[C@@H](O)C3)cc2F)cn1 (relative stereo) [Example 106, (trans)-1-{[4′-(5-Aminopyrazin-2-yl)-3′-fluorobiphenyl-2-yl]sulfonyl}pyrrolidine-3,4-diol] | –
2 nM | 48 nM | Nc1cnc(-c2ccc(-c3ccccc3S(=O)(=O)NC3CCc4ccccc43)cc2F)cn1 (stereo in doubt) [Example 22, (S)-4′-(5-Aminopyrazin-2-yl)-N-[(1S)-2,3-dihydro-1H-inden-1-yl]-3′-fluorobiphenyl-2-sulfonamide] | –
1 nM | 19 nM | C[C@H](NS(=O)(=O)c1ccccc1-c1ccc(-c2cnc(N)cn2)c(F)c1)C(O)c1ccccc1 (stereo in doubt) [Example 83, 4′-(5-Aminopyrazin-2-yl)-3′-fluoro-N-[(1S,2R)-2-hydroxy-1-methyl-2-phenylethyl]biphenyl-2-sulfonamide] | –
76 nM | 235 nM | NC[C@H]1CCCN1S(=O)(=O)c1ccccc1-c1ccc(-c2cnc(N)cn2)c(F)c1 (stereo in doubt) [Example 94, 5-(2′-{[2-(Aminomethyl)pyrrolidin-1-yl]sulfonyl}-3-fluorobiphenyl-4-yl)pyrazin-2-amine] | –
1 nM | 16 nM | CC(CO)NS(=O)(=O)c1ccccc1-c1ccc(-c2cnc3[nH]ccc3n2)c(F)c1 (stereo in doubt) [Example 378, 3′-Fluoro-N-[(1R)-2-hydroxy-1-methylethyl]-4′-(5H-pyrrolo[2,3-b]pyrazin-2-yl)biphenyl-2-sulfonamide] | –
1 nM | 46 nM | CC(CO)NS(=O)(=O)c1ccccc1-c1ccc(-c2cnc3[nH]ccc3n2)c(F)c1 (stereo in doubt) [Example 380, 3′-Fluoro-N-[(1S)-2-hydroxy-1-methylethyl]-4′-(5H-pyrrolo[2,3-b]pyrazin-2-yl)biphenyl-2-sulfonamide] | –
– | – | CC(CO)NS(=O)(=O)c1ccccc1-c1ccc(-c2cnc(N)c(C#N)n2)c(F)c1 (stereo in doubt) [Example 410, 4′-(5-amino-6-cyanopyrazin-2-yl)-3′-fluoro-N-[(1R)-2-hydroxy-1-methylethyl]biphenyl-2-sulfonamide] | Ki ([1]; wild type FLAP, HTRF format): 4 nM; IC50 [2, 3]: 88 nM
– | – | CC(CO)NS(=O)(=O)c1ccccc1-c1ccc(-c2cnc(N)c(C#N)n2)c(F)c1 (stereo in doubt) [Example 412, 4′-(5-Amino-6-cyanopyrazin-2-yl)-3′-fluoro-N-[(1S)-2-hydroxy-1-methylethyl]biphenyl-2-sulfonamide] | Ki ([1]; wild type FLAP, HTRF format): 19 nM; IC50 [2, 3]: 509 nM
– | – | CC(CO)Oc1ncccc1-c1ccc(-c2cnc(N)cn2)c(F)c1 (stereo in doubt) [Example 655, (2R)-2-({3-[4-(5-Aminopyrazin-2-yl)-3-fluorophenyl]pyridin-2-yl}oxy)propan-1-ol] | Ki ([1]; wild type FLAP, HTRF format): 503 nM; IC50 [2, 3]: 1830 nM
– | – | CC(CO)Oc1ncccc1-c1ccc(-c2cnc(N)cn2)c(F)c1 (stereo in doubt) [Example 657, (2S)-2-({3-[4-(5-Aminopyrazin-2-yl)-3-fluorophenyl]pyridin-2-yl}oxy)propan-1-ol] | Ki ([1]; wild type FLAP, HTRF format): 73.5 nM; IC50 [2, 3]: 2340 nM
217 nM | 860 nM | CS(=O)(=O)c1ccccc1-c1ccc(-c2cnc(N)cn2)c(F)c1 [Example 1, 5-[3-Fluoro-2′-(methylsulfonyl)biphenyl-4-yl]pyrazin-2-amine] | –
286 nM | 358 nM | CS(=O)(=O)Nc1ccccc1-c1ccc(-c2cnc(N)cn2)c(F)c1 [Example 2, N-[4′-(5-Aminopyrazin-2-yl)-3′-fluorobiphenyl-2-yl]methanesulfonamide] | –

Ki [1, 4] | IC50 [2, 5] | SMILES | also measured
1 nM | 18 nM | CC(C)(C)NS(=O)(=O)c1ccccc1-c1ccc(-c2cnc(N)cn2)c(F)c1 [Example 4, 4′-(5-Aminopyrazin-2-yl)-N-tert-butyl-3′-fluorobiphenyl-2-sulfonamide] | –
35 nM | 370 nM | Nc1cnc(-c2ccc(-c3ccccc3S(N)(=O)=O)cc2F)cn1 [Example 5, 4′-(5-Aminopyrazin-2-yl)-3′-fluorobiphenyl-2-sulfonamide] | –
1 nM | 33 nM | Nc1cnc(-c2ccc(-c3ccccc3S(=O)(=O)NC3CCCCC3)cc2F)cn1 [Example 6, 4′-(5-Aminopyrazin-2-yl)-N-cyclohexyl-3′-fluorobiphenyl-2-sulfonamide] | –
2 nM | 14 nM | CC(C)CNS(=O)(=O)c1ccccc1-c1ccc(-c2cnc(N)cn2)c(F)c1 [Example 7, 4′-(5-Aminopyrazin-2-yl)-3′-fluoro-N-(2-methylpropyl)biphenyl-2-sulfonamide] | –
3 nM | 60 nM | Nc1cnc(-c2ccc(-c3ccccc3S(=O)(=O)NCC3CCC3)cc2F)cn1 [Example 9, 4′-(5-Aminopyrazin-2-yl)-N-(cyclobutylmethyl)-3′-fluorobiphenyl-2-sulfonamide] | –
2 nM | 15 nM | CC1(NS(=O)(=O)c2ccccc2-c2ccc(-c3cnc(N)cn3)c(F)c2)CCC1 [Example 11, 4′-(5-Aminopyrazin-2-yl)-3′-fluoro-N-(1-methylcyclobutyl)biphenyl-2-sulfonamide] | –
2 nM | 21 nM | CCC(C)(C)NS(=O)(=O)c1ccccc1-c1ccc(-c2cnc(N)cn2)c(F)c1 [Example 12, 4′-(5-Aminopyrazin-2-yl)-N-(1,1-dimethylpropyl)-3′-fluorobiphenyl-2-sulfonamide] | –
3 nM | 32 nM | Nc1cnc(-c2ccc(-c3ccccc3S(=O)(=O)NC3CCCC3)cc2F)cn1 [Example 14, 4′-(5-Aminopyrazin-2-yl)-N-cyclopentyl-3′-fluorobiphenyl-2-sulfonamide] | –
10 nM | 59 nM | CNS(=O)(=O)c1ccccc1-c1ccc(-c2cnc(N)cn2)c(F)c1 [Example 15, 4′-(5-Aminopyrazin-2-yl)-3′-fluoro-N-methylbiphenyl-2-sulfonamide] | –
6 nM | 18 nM | CCNS(=O)(=O)c1ccccc1-c1ccc(-c2cnc(N)cn2)c(F)c1 [Example 16, 4′-(5-Aminopyrazin-2-yl)-N-ethyl-3′-fluorobiphenyl-2-sulfonamide] | –
2 nM | 25 nM | Nc1cnc(-c2ccc(-c3ccccc3S(=O)(=O)NCCc3ccccc3)cc2F)cn1 [Example 17, 4′-(5-Aminopyrazin-2-yl)-3′-fluoro-N-(2-phenylethyl)biphenyl-2-sulfonamide] | –
2 nM | 70 nM | Nc1cnc(-c2ccc(-c3ccccc3S(=O)(=O)N[C@H](c3ccccc3)C(F)(F)F)cc2F)cn1 [Example 18, (R)-4′-(5-Aminopyrazin-2-yl)-3′-fluoro-N-[(1R)-2,2,2-trifluoro-1-phenylethyl]biphenyl-2-sulfonamide] | –
2 nM | 50 nM | Nc1cnc(-c2ccc(-c3ccccc3S(=O)(=O)N[C@@H](c3ccccc3)C(F)(F)F)cc2F)cn1 [Example 19, (S)-4′-(5-Aminopyrazin-2-yl)-3′-fluoro-N-[(1S)-2,2,2-trifluoro-1-phenylethyl]biphenyl-2-sulfonamide] | –
1 nM | – | C[C@@H](NS(=O)(=O)c1ccccc1-c1ccc(-c2cnc(N)cn2)c(F)c1)C(F)(F)F [Example 20, (S)-4′-(5-Aminopyrazin-2-yl)-3′-fluoro-N-[(1S)-2,2,2-trifluoro-1-methylethyl]biphenyl-2-sulfonamide] | IC50 [2, 6]: 9 nM
1 nM | 13 nM | Nc1cnc(-c2ccc(-c3ccccc3S(=O)(=O)N[C@@H]3CCc4ccccc43)cc2F)cn1 [Example 23, (R)-4′-(5-Aminopyrazin-2-yl)-N-[(1R)-2,3-dihydro-1H-inden-1-yl]-3′-fluorobiphenyl-2-sulfonamide] | –

SMILES | Ki [1, 4] | IC50 [2, 5] | also measured
CC(CO)NS(=O)(=O)c1ccccc1-c1ccc(-c2ccc(N)nc2)c(F)c1 (stereo in doubt) [Example 352, (R)-4′-(6-Aminopyridin-3-yl)-3′-fluoro-N-(1-hydroxypropan-2-yl)-[1,1′-biphenyl]-2-sulfonamide] | 16 nM | – | IC50 [2, 6]: 64 nM
CC(C)(NS(=O)(=O)c1ccccc1-c1ccc(-c2cnc(N)cn2)c(F)c1)C(F)(F)F [Example 13, 4′-(5-Aminopyrazin-2-yl)-3′-fluoro-N-(2,2,2-trifluoro-1,1-dimethylethyl)biphenyl-2-sulfonamide] | – | 18 nM | Ki ([1]; read-out: FLAP Binding wild type HTRF Ki): 1 nM
